Source: patent US10525133B2, “Aqueous composition comprising at least one protein and one solubilizing agent, preparation thereof and uses thereof” (ADOCIA, priority 2014, dated 2020)
Values belong to the compound of their own block, whether it stands above or below them.

Tests used:
[1] = test system: Nanogam (human immunoglobulins); experiment: Reduction in aggregation of Nanogam at its isoelectric point (light scattering at 12.8°, Malvern NanoZS); format: physicochemical; settings: 40 mg/ml human immunoglobulins, pH 8.5 (pI), relative to Nanogam at pH 4.3
Procedure: The Nanogam formulation is a formulation of human immunoglobulins at 50 mg/ml and at pH 4.3 containing various IgG subclasses (IgG1: 54-70%, IgG2: 29-45%, IgG3: 1-4%, IgG4: 0-0.5%, IgA: at most 6 μg/ml). […] A test with various compounds is therefore carried out at the isoelectric point in order to identify the compounds which make it possible to reduce this aggregation phenomenon.
A commercial solution of Nanogam at 50 mg/ml is used. […] Mixing between the solution of Nanogam and one of the solutions of compound is carried out in order to obtain a solution containing 40 mg/ml of human immunoglobulins and the desired concentration of compound. The pH of the various solutions is adjusted to pH 8.5 by adding hydrochloric acid or sodium hydroxide depending on the pH achieved following the mixing between the compound of interest and the solution of human immunoglobulins.
The mixtures are then analyzed by light scattering on a Malvern NanoZS instrument.
The scattered intensities are measured at 12.8°.

human insulin = target: T1, human insulin (Homo sapiens, UniProt P01308); experiment: Solubilization of human insulin at its isoelectric point (visual appearance, soluble fraction by RP-HPLC); format: physicochemical; design: key to Visual appearance: Cloudy: If the solution is cloudy, the compound at the concentration tested does not allow total solubilization of human insulin at its isoelectric point; Clear: If the solution is clear, the compound allows total solubilization of human insulin at the concentration tested; settings: 100 IU/ml human insulin, pH 5.3 (pI)
T1 construct: A solution of human insulin at 500 IU/ml is prepared
Procedure: Human insulin has an isoelectric point (pI) of 5.3. […] A test of solubility at the pI of human insulin with various compounds is carried out. […] Solutions of compounds at various concentrations in water are prepared as described in examples B1 to B4. […] The pH of the various solutions is adjusted to pH 5.3 by adding hydrochloric acid or sodium hydroxide depending on the pH achieved following the mixing between the compound and the solution of human insulin. The appearance of the solution is documented. […] If the solution is clear, the compound allows total solubilization of human insulin at the concentration tested. In addition, the mixtures are centrifuged at 4000 rpm for 10 minutes in a Hereaus Biofuge Pico centrifuge (Rotor #3328) and then filtered through 0.22 μm in order to remove the precipitate. The resulting soluble fractions are then assayed by RP-HPLC (column: Sunfire C18, Waters ref:186003417; mobile phase: sodium phosphate/acetonitrile gradient; detection: UV at 276 nm) with an external insulin range in order to quantify the percentage of soluble insulin at the pI.

[2] = at pH 5.3 (pI); cited from earlier work
[3] = compound 180 mmol/l, molar ratio compound/Nanogam 675
[4] = compound 75 mmol/l, molar ratio compound/insulin 125
[5] = compound 750 mmol/l, molar ratio compound/insulin 1250
[6] = compound 300 mmol/l, molar ratio compound/insulin 500
[7] = compound 120 mmol/l, molar ratio compound/insulin 200
[8] = compound 150 mmol/l, molar ratio compound/insulin 250

T1 sequence (P01308 25-54 limits assumed): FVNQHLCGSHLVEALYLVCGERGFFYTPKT
T1 sequence (P01308 90-110 limits assumed): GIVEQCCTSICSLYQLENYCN

- Soluble insulin recovery (%) (human insulin; [6]): 100%
- Visual appearance (human insulin; [6]): Clear
- Iscat 12.8° standardized ([1]; compound 85 mmol/l, molar ratio compound/Nanogam 320): 23.5
Compound: O=C(CO)N[C@@H](Cc1ccccc1)C(=O)O [Molecule A1, N-(2-hydroxyacetyl)-L-phenylalanine]

- Soluble insulin recovery (%) (human insulin; [7]): 100%
- Visual appearance (human insulin; [7]): Clear
Compound: O=C(CO)N[C@@H](Cc1c[nH]c2ccccc12)C(=O)O [Molecule A2, N-(2-hydroxyacetyl)-L-tryptophan]

- Soluble insulin recovery (%) (human insulin; [8]): 67%
- Visual appearance (human insulin; [8]): Cloudy
- Soluble insulin recovery (%) (human insulin; [6]): 35%
- Visual appearance (human insulin; [6]): Cloudy
Compound: OC[C@H]1O[C@@](CO)(O[C@H]2O[C@H](CO)[C@@H](O)[C@H](O)[C@H]2O)[C@@H](O)[C@@H]1O [Sucrose, reference compound]

The remaining lines, values behind:

Compound: CC(Oc1ccccc1)C(=O)O (stereo not drawn) [2-Phenoxypropionic acid]
- Iscat 12.8° standardized [1, 3]: 6.38

Compound: CC(=O)O [Acetic acid, reference compound]
- Iscat 12.8° standardized [1, 3]: 200.18

Compound: N[C@@H](Cc1c[nH]cn1)C(=O)O [Histidine, L-histidine, reference compound]
- Soluble insulin recovery (%) (human insulin; [4]): 48%
- Visual appearance (human insulin; [4]): Cloudy
- Iscat 12.8° standardized ([1]; compound 40 mmol/l, molar ratio compound/Nanogam 150): 80.82

Compound: O=C(O)C(O)c1ccccc1 (stereo not drawn) [Mandelic acid]
- Soluble insulin recovery (%) (human insulin; [5]): 100%
- Visual appearance (human insulin; [5]): Clear
- Iscat 12.8° standardized ([1]; compound 27.5 mmol/l, molar ratio compound/Nanogam 675): 22.15

Compound: O=C(O)Cc1ccccc1 [Phenylacetic acid]
- Iscat 12.8° standardized [1, 3]: 20.082

Compound: Human insulin control: Human insulin at 100 IU/ml, pH 5.3, without solubilizing compound
- Soluble insulin recovery (%) (human insulin; control without compound): 11%
- Visual appearance (human insulin; control without compound): Cloudy
- Concentration at which human insulin precipitates [2]: greater than or equal to 10 IU/ml
